# Results from ChEMBL document CHEMBL1131728 (Bioorg Med Chem Lett, 1999).
# pKi: −log10 of the molar value.
# Biological target: T1, Aminopeptidase N (Sus scrofa, UniProt P15145)
# T1 sequence (P15145 whole entry): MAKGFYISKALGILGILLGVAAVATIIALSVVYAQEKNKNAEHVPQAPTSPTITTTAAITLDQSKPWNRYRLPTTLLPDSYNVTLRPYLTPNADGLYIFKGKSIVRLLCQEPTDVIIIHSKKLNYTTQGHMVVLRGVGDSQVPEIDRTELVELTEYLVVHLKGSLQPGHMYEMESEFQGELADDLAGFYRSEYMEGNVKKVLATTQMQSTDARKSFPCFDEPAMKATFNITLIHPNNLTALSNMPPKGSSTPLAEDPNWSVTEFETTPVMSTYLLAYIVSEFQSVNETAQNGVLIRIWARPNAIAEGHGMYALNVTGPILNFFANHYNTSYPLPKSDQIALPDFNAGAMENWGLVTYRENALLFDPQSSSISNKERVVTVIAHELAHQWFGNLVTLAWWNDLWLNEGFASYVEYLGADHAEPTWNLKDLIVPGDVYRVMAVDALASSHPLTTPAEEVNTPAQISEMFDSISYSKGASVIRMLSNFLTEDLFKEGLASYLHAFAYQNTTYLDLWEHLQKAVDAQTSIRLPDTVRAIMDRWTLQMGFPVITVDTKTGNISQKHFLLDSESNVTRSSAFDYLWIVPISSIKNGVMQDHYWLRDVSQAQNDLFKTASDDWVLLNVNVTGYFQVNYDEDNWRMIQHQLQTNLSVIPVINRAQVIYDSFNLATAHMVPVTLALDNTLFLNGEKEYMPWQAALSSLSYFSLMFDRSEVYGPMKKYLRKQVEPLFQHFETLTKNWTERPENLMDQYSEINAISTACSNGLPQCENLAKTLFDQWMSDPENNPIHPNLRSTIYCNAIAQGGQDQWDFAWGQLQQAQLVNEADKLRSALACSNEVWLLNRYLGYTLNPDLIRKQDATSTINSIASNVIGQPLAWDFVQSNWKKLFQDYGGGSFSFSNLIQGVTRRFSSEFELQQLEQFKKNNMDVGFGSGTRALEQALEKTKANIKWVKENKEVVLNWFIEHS
# Assay: Inhibition of pig kidney Aminopeptidase N
row,SMILES,pKi
1,C[C@H](N)CS,7.55
2,CC(N)[PH](=O)O (stereo unspecified),5.08
3,NC(Cc1ccccc1)[PH](=O)O (stereo unspecified),6.02
4,CSCCC(N)[PH](=O)O (stereo unspecified),6.40
5,CC(C)CC(N)[PH](=O)O (stereo unspecified),5.92
6,NC(c1ccccc1)[PH](=O)O (stereo unspecified),5.32

# Now from value to compound:
row,pKi,SMILES
1,7.60,N[C@H](CS)c1ccccc1
2,6.72,NC(Cc1ccccc1)P(=O)(O)CC(Cc1ccccc1)C(=O)O (stereo unspecified)
3,7.57,N[C@H](CS)CCc1ccccc1
4,6.43,CC(C)CC(N)P(=O)(O)CC(Cc1ccccc1)C(=O)O (stereo unspecified)
5,7.66,CC(C)C[C@H](N)CS
